The text below walks through data of patent US12291529B2, “Heterocyclic GLP-1 agonists” (Gasherbrum Bio, Inc., priority 2023, dated 2025).

This assay deals with GLP-1 Receptor (Homo sapiens, UniProt P43220). Briefly: GLP-1R agonist cAMP stimulation assay (HEK293/GLP1R/CRE-LUC cells, Cisbio cAMP dynamic 2 kit). It is filed as cell-based. The conditions noted are these: Table 3, HEK293/GLP1R/CRE-LUC cells, 30 min. The essentials:
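HEK293 cells stably expressing human GLP-1R with CRE-Luc reporter, 1000 cells/well in DPBS with 0.5 mM IBMX and BSA. Cells treated with compound (½-log dilutions) for 30 min at 37 °C. cAMP read by HTRF at 665/615 nm; % activity relative to vehicle and maximal control.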

Chain of GLP-1 Receptor (P43220 24-463, species assumed): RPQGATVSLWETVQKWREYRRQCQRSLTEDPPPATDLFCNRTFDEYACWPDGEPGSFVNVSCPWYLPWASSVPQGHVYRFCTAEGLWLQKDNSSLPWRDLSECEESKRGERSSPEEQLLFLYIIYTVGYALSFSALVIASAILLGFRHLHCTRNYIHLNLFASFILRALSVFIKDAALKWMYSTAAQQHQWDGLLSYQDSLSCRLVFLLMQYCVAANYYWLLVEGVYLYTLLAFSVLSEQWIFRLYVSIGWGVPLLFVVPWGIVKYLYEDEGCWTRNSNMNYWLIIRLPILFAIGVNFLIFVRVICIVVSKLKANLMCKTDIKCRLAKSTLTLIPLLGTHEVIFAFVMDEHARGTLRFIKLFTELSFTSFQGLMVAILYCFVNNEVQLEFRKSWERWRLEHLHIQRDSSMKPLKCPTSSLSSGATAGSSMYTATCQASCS

The term EC50 denotes the concentration needed to bring the measured effect to its halfway point. A higher EC50 goes with a less potent agent. In turn, `Cc1cc(-n2nc3c(c2-n2ccn(-c4ccc5c(c4)CCS(C)(=O)=N5)c2=O)[C@H](C)N(C(=O)c2cc4cc([C@H]5CCOC(C)(C)C5)ccc4n2[C@@]2(c4noc(=O)[nH]4)C[C@@H]2C)CC3)cc(C)c1F` (single isomer, unassigned) [Compound 228] had an EC50 of 0.34 nM.
Compound `Cc1cc(-n2nc3c(c2-n2ccn(-c4ccc5c(c4)CCS(C)(=O)=N5)c2=O)[C@H](C)N(C(=O)c2cc4cc([C@H]5CCOC(C)(C)C5)ccc4n2[C@@]2(c4noc(=O)[nH]4)C[C@@H]2C)CC3)cc(C)c1F` (single isomer, unassigned) [Compound 229] showed an EC50 of 0.042 nM.
Regarding `Cc1cc(-n2nc3c(c2-n2ccn(-c4ccc5c(c4)C=CS(C)(=O)=N5)c2=O)[C@H](C)N(C(=O)c2cc4cc([C@H]5CCOC(C)(C)C5)ccc4n2[C@@]2(c4noc(=O)[nH]4)C[C@@H]2C)CC3)cc(C)c1F` (single isomer, unassigned) [Compound 230], it took 0.048 nM to reach a half-maximal effect (EC50).
Then `Cc1cc(-n2nc3c(c2-n2ccn(-c4ccc5c(c4)C=CS(C)(=O)=N5)c2=O)[C@H](C)N(C(=O)c2cc4cc([C@H]5CCOC(C)(C)C5)ccc4n2[C@@]2(c4noc(=O)[nH]4)C[C@@H]2C)CC3)cc(C)c1F` (single isomer, unassigned) [Compound 231], with 0.014 nM; and `CN=S1(=O)CCC(Oc2ccc(-n3ccn(-c4c5c(nn4-c4cc(C)c(F)c(C)c4)CCN(C(=O)c4cc6cc(C7CCOCC7)ccc6n4[C@@]4(c6noc(=O)[nH]6)C[C@@H]4C)[C@H]5C)c3=O)c(F)c2C)CC1` (single isomer, unassigned) [Compound 232], with 0.037 nM; and `CN=S1(=O)CCC(Oc2ccc(-n3ccn(-c4c5c(nn4-c4cc(C)c(F)c(C)c4)CCN(C(=O)c4cc6cc(C7CCOCC7)ccc6n4[C@@]4(c6noc(=O)[nH]6)C[C@@H]4C)[C@H]5C)c3=O)c(F)c2C)CC1` (single isomer, unassigned) [Compound 233], with 0.028 nM.
Then `CN=S1(=O)CCC(Oc2ccc(-n3ccn(-c4c5c(nn4-c4cc(C)c(F)c(C)c4)CCN(C(=O)c4cc6cc(C7CCOCC7)ccc6n4[C@@]4(c6noc(=O)[nH]6)C[C@@H]4C)[C@H]5C)c3=O)cc2C(F)F)CC1` (single isomer, unassigned) [Compound 234], with 0.058 nM; and `CN=S1(=O)CCC(Oc2ccc(-n3ccn(-c4c5c(nn4-c4cc(C)c(F)c(C)c4)CCN(C(=O)c4cc6cc(C7CCOCC7)ccc6n4[C@@]4(c6noc(=O)[nH]6)C[C@@H]4C)[C@H]5C)c3=O)cc2C(F)F)CC1` (single isomer, unassigned) [Compound 235], with 0.057 nM; and `CN=S1(=O)CCC(Oc2ccc(-n3ccn(-c4c5c(nn4-c4cc(C)c(F)c(C)c4)CCN(C(=O)c4cc6cc([C@H]7CCOC(C)(C)C7)ccc6n4[C@@]4(c6noc(=O)[nH]6)C[C@@H]4C)[C@H]5C)c3=O)cc2C2CC2)CC1` (single isomer, unassigned) [Compound 236], with 0.053 nM.
The result for `Cc1cc(-n2nc3c(c2-n2ccn(-c4ccc5c(c4)CCS5(=N)=O)c2=O)[C@H](C)N(C(=O)c2cc4cc(C5CCOCC5)ccc4n2[C@@]2(c4noc(=O)[nH]4)C[C@@H]2C)CC3)cc(C)c1F` (stereo partly drawn) [Compound 101, 3-[(1S,2S)-1-(2-{[(4S)-3-[3-(1-azanylidene-l-oxo-2,3-dihydro-1λ^6-benzo[b]thiophen-5-yl)-2-oxoimidazol-1-yl]-2-(4-fluoro-3,5-dimethylphenyl)-4-methyl-4,5,6,7-tetrahydropyrazolo[4,3-c]pyridin-5-yl]carbonyl}-5-(3,4,5,6-tetrahydro-2H-pyran-4-yl)indol-1-yl)-2-methylcyclopropyl]-4H,5H-1,2,4-oxadiazol-5-one] reads 0.067 nM; that for `Cc1cc(-n2nc3c(c2-n2ccn(-c4ccc(S(C)(=N)=O)nc4)c2=O)[C@H](C)N(C(=O)c2cc4cc(C5CCOCC5)ccc4n2[C@@]2(c4noc(=O)[nH]4)C[C@@H]2C)CC3)cc(C)c1F` (stereo partly drawn) [Compound 102, 3-[(1S,2S)-1-(2-{[(4S)-3-(3-{6-[azanylidene(methyl)(oxo)-λ^6-sulfanyl]pyridin-3-yl}-2-oxoimidazol-1-yl)-2-(4-fluoro-3,5-dimethylphenyl)-4-methyl-4,5,6,7-tetrahydropyrazolo[4,3-c]pyridin-5-yl]carbonyl}-5-(3,4,5,6-tetrahydro-2H-pyran-4-yl)indol-1-yl)-2-methylcyclopropyl]-4H,5H-1,2,4-oxadiazol-5-one], 0.17 nM.
Regarding `Cc1cc(-n2nc3c(c2N2CCN(c4ccc(S(C)(=N)=O)cc4)C2=O)[C@H](C)N(C(=O)c2cc4cc(C5CCOCC5)ccc4n2[C@@]2(c4noc(=O)[nH]4)C[C@@H]2C)CC3)cc(C)c1F` (stereo partly drawn) [Compound 103, 3-[(1S,2S)-1-(2-{[(4S)-3-(3-{4-[azanylidene(methyl)(oxo)-λ^6-sulfanyl]phenyl}-2-oxotetrahydro-1H-imidazol-1-yl)-2-(4-fluoro-3,5-dimethylphenyl)-4-methyl-4,5,6,7-tetrahydropyrazolo[4,3-c]pyridin-5-yl]carbonyl}-5-(3,4,5,6-tetrahydro-2H-pyran-4-yl)indol-1-yl)-2-methylcyclopropyl]-4H,5H-1,2,4-oxadiazol-5-one], the EC50 came out at 0.14 nM.
Then `CNc1cc(-n2ccn(-c3c4c(nn3-c3cc(C)c(F)c(C)c3)CCN(C(=O)c3cc5cc(C6CCOCC6)ccc5n3[C@@]3(c5nc(=O)o[nH]5)C[C@@H]3C)[C@H]4C)c2=O)ccc1S(C)(=N)=O` (stereo partly drawn) [Compound 105, 3-[(1S,2S)-1-(2-{[(S)-2-(4-fluoro-3,5-xylyl)-3-{3-[4-(iminomethyloxothio)-3-(methylamino)phenyl]-2-oxo-1,3-dihydro-1-imidazolyl}-4-methyl-4,5,6,7-tetrahydro-2H-1,2,5-triazainden-5-yl]carbonyl}-5-(tetrahydro-2H-pyran-4-yl)-1-indolyl)-2-methylcyclopropyl]-1,2,4-oxadiazol-5(4H)-one], with 0.009 nM; and `Cc1cc(-n2nc3c(c2-n2ccn(-c4ccc(S(C)(=N)=O)cc4)c2=O)[C@H](C)N(C(=O)c2cc4cc(N5CCOCC5)ccc4n2C2(c4noc(=O)[nH]4)CC2)CC3)cc(C)c1F` (some centres unmarked) [Compound 106], with 0.67 nM.
On to `Cc1cc(-n2nc3c(c2-n2ccn(-c4ccc(S(C)(=N)=O)cc4)c2=O)[C@H](C)N(C(=O)c2cc4cc(C5CCOCC5)ccn4c2C2(c4noc(=O)[nH]4)CC2)CC3)cc(C)c1F` (some centres unmarked) [Compound 107], for which the EC50 stood at 0.46 nM.
Then `Cc1cc(-n2nc3c(c2-n2ccn(-c4ccc5c(c4)CCN=S5(C)=O)c2=O)[C@H](C)N(C(=O)c2cc4cc(C5CCOCC5)ccc4n2[C@@]2(c4noc(=O)[nH]4)C[C@@H]2C)CC3)cc(C)c1F` (stereo partly drawn) [Compound 108, 6-{3-[(4S)-2-(4-fluoro-3,5-dimethylphenyl)-5-({1-[(1S,2S)-2-methyl-1-(5-oxo-4H-1,2,4-oxadiazol-3-yl)cyclopropyl]-5-(3,4,5,6-tetrahydro-2H-pyran-4-yl)indol-2-yl}carbonyl)-4-methyl-4,5,6,7-tetrahydropyrazolo[4,3-c]pyridin-3-yl]-2-oxoimidazol-1-yl}-1-methyl-3,4-dihydro-1λ^6-benzo[2,1-e][1,2]thiazin-1-one], with 0.013 nM; and `Cc1cc(-n2nc3c(c2-n2ccn(-c4ccc(S(C)(=N)=O)cc4)c2=O)[C@H](C)N(C(=O)c2cn4cc(C5CCOCC5)ccc4c2C2(c4noc(=O)[nH]4)CC2)CC3)cc(C)c1F` (some centres unmarked) [Compound 109], with 0.27 nM.
